Experiments:
HT-29 cells = assay type: cell-based, human
NetB toxin = assay type: cell-based, Clostridium perfringens strain 25037-CP01
netB gene = assay type: cell-based, Clostridium perfringens

Compound: N[C@@H](CC(=O)O)C(=O)O [aspartic acid]
- HT29 cell death (HT-29 cells): less than 10%
- level of extracellular NetB toxin secreted into the media (NetB toxin): lower the level
- netB expression / toxin producing population in single cell data (netB gene): marked reduction

Compound: ammonium phosphate
- level of extracellular NetB toxin secreted into the media (NetB toxin): reduced

Compound: Cc1ncc(C[n+]2csc(CCO)c2C)c(N)n1 [Vitamin B1]
- level of extracellular NetB toxin secreted into the media (NetB toxin): reduced

Compound: Vitamin B12
- level of extracellular NetB toxin secreted into the media (NetB toxin): reduced

Compound: Cc1ncc(CO)c(CO)c1O.Cl [Vitamin B6]
- level of extracellular NetB toxin secreted into the media (NetB toxin): reduced

Compound: CC(=O)[O-].[Na+] [sodium acetate]
- level of extracellular NetB toxin secreted into the media (NetB toxin): reduced

Compound: N=C(N)NCCC[C@H](N)C(=O)O [arginine]
- netB expression / toxin producing population in single cell data (netB gene): small reduction

Compound: NCCC[C@H](N)C(=O)O [ornithine]
- netB expression / toxin producing population in single cell data (netB gene): small reduction
